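Each compound was tested at five concentrations against cells in 96-well plates for 48 hours. GI50 marks 50% less growth.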 Calls of active or inactive are those of the source. Rule as the data show it: active = GI50 up to about 1.1 µM and inactive = higher.
Tests used:
Test in all cases: NCI-60 cell line screen, 48 h
MDA-MB-435 = system: MDA-MB-435
SK-MEL-5 = system: SK-MEL-5
NCI-H460 = system: NCI-H460
Hs-578T = system: Hs-578T
IGROV-1 = system: IGROV-1
HCT-116 = system: HCT-116
K562 = system: K562
SK-OV-3 = system: SK-OV-3
A498 = system: A498
OVCAR-4 = system: OVCAR-4
M14 = system: M14
UACC-257 = system: UACC-257
HL-60 = system: HL-60
HCT-15 = system: HCT-15
EKVX = system: EKVX
LOX IMVI = system: LOX IMVI
RPMI-8226 = system: RPMI-8226
CCRF-CEM = system: CCRF-CEM
786-0 = system: 786-0
KM12 = system: KM12

| Structure (SMILES) | GI50 (MDA-MB-435) | GI50 (SK-MEL-5) | GI50 (NCI-H460) | GI50 (Hs-578T) | GI50 (IGROV-1) | GI50 (HCT-116) | GI50 (K562) | GI50 (SK-OV-3) | GI50 (A498) | GI50 (OVCAR-4) | GI50 (M14) | GI50 (UACC-257) | GI50 (HL-60) | GI50 (HCT-15) | GI50 (EKVX) | GI50 (LOX IMVI) | GI50 (RPMI-8226) | GI50 (CCRF-CEM) | GI50 (786-0) | GI50 (KM12) |
| --- | --- | --- | --- | --- | --- | --- | --- | --- | --- | --- | --- | --- | --- | --- | --- | --- | --- | --- | --- | --- |
| CCN(CC)C(=S)N/N=C1\C(=O)Nc2ccccc21 | 2.51 µM (inactive) | 0.193 µM (active) | 0.406 µM (active) | 0.771 µM (active) | 0.239 µM (active) | 0.386 µM (active) | 0.562 µM (active) | 3.05 µM (inactive) | 1.25 µM (inactive) | 0.771 µM (active) | 0.586 µM (active) | 1.64 µM (inactive) | 0.338 µM (active) | 0.413 µM | 1.36 µM (inactive) | 0.495 µM (active) | 0.355 µM (active) | 0.347 µM (active) | 0.432 µM (active) | 0.451 µM (active) |
| N/N=C1N=C(Cl)/C(=C/c2ccco2)N\1 | 40.6 µM (inactive) | 34 µM (inactive) | – | 41.3 µM (inactive) | 42.4 µM (inactive) | 36.5 µM (inactive) | 14.8 µM (inactive) | 76 µM (inactive) | > 100 µM (inactive) | 31.6 µM (inactive) | 35.2 µM (inactive) | 52.8 µM (inactive) | 21.9 µM (inactive) | 31.5 µM | > 100 µM (inactive) | 27.9 µM (inactive) | 16.8 µM (inactive) | 31.4 µM (inactive) | 61.5 µM (inactive) | 28.2 µM (inactive) |
| COC(=O)C1=NN2c3ccccc3C(=O)OCCC2C1 (stereo not drawn) | > 100 µM (inactive) | > 100 µM (inactive) | > 100 µM (inactive) | > 100 µM (inactive) | 71.9 µM (inactive) | > 100 µM (inactive) | > 100 µM (inactive) | > 100 µM (inactive) | > 100 µM (inactive) | > 100 µM (inactive) | – | > 100 µM (inactive) | > 100 µM (inactive) | > 100 µM | > 100 µM (inactive) | > 100 µM (inactive) | > 100 µM (inactive) | > 100 µM (inactive) | > 100 µM (inactive) | > 100 µM (inactive) |
| CCOC(=O)NC(NC1=NCCS1)(C(=O)OCC)C(F)(F)F (stereo not drawn) | > 100 µM (inactive) | > 100 µM (inactive) | > 100 µM (inactive) | > 100 µM (inactive) | > 100 µM (inactive) | > 100 µM (inactive) | > 100 µM (inactive) | > 100 µM (inactive) | > 100 µM (inactive) | > 100 µM (inactive) | > 100 µM (inactive) | > 100 µM (inactive) | > 100 µM (inactive) | > 100 µM | > 100 µM (inactive) | > 100 µM (inactive) | > 100 µM (inactive) | > 100 µM (inactive) | > 100 µM (inactive) | > 100 µM (inactive) |
| O=C1NC(Nc2ccccc2Cl)=N/C1=C\c1c(Cl)cccc1Cl | 11 µM (inactive) | 20.3 µM (inactive) | 24.9 µM (inactive) | 28.8 µM (inactive) | 25.8 µM (inactive) | 22.5 µM (inactive) | 17.1 µM (inactive) | 59.8 µM (inactive) | 34.5 µM (inactive) | 11.6 µM (inactive) | 40.9 µM (inactive) | 25.4 µM (inactive) | 18.6 µM (inactive) | 25.5 µM | 31 µM (inactive) | 29.4 µM (inactive) | 20.6 µM (inactive) | 34.4 µM (inactive) | 33.4 µM (inactive) | 23.7 µM (inactive) |
| CCOC(=O)N(C)C1(c2ccccc2)CCN(CCCC(=O)c2ccc(F)cc2)CC1 | 23.9 µM (inactive) | 17.3 µM (inactive) | 35.5 µM (inactive) | 49 µM (inactive) | > 100 µM (inactive) | 32.2 µM (inactive) | 23.7 µM (inactive) | > 100 µM (inactive) | 36.5 µM (inactive) | 40.2 µM (inactive) | 17.2 µM (inactive) | 20.3 µM (inactive) | 26.5 µM (inactive) | 35.1 µM | > 100 µM (inactive) | 20.9 µM (inactive) | 27.4 µM (inactive) | 31.7 µM (inactive) | 33 µM (inactive) | 30.5 µM (inactive) |
| Cc1nnc(SCc2nc(C#N)c(C#N)nc2CSc2nnc(C)s2)s1 | 8.63 µM (inactive) | 15 µM (inactive) | 24.2 µM (inactive) | 17.1 µM (inactive) | 16.8 µM (inactive) | 4.55 µM (inactive) | 4.37 µM (inactive) | 33.3 µM (inactive) | 27.4 µM (inactive) | 15.2 µM (inactive) | 16.6 µM (inactive) | 13.8 µM (inactive) | 1.79 µM (inactive) | 7.66 µM | 14.7 µM (inactive) | 8.89 µM (inactive) | 2.93 µM (inactive) | 1.98 µM (inactive) | 9.48 µM (inactive) | 19.3 µM (inactive) |

— ChEMBL document CHEMBL1201862, “PubChem BioAssay data set” (2004)
